According to the NIST ThermoML archive (doi:10.1016/j.fluid.2015.12.053):
Numbers after ± are expanded uncertainties.

Experiments:
[1] = Liquid, Ebulliometric method (Recirculating still)
[2] = wn = mass fraction of the nth substance listed; details: 100 kPa, Liquid, Pycnometric method

Cl.Nc1ccccc1 [aniline hydrochloride]
[1]
Details | vapor or sublimation pressure [kPa]
475.15 K | 23.25 ± 0.18
480.15 K | 27.25 ± 0.2
484.15 K | 31.25 ± 0.2
488.15 K | 34.25 ± 0.25
493.15 K | 41.25 ± 0.61
494.15 K | 44.25 ± 0.42
495.15 K | 45.25 ± 0.25
496.15 K | 46.25 ± 0.31
498.15 K | 49.25 ± 0.37
499.15 K | 51.25 ± 0.39
500.15 K | 52.75 ± 0.39
501.15 K | 54.75 ± 0.39
502.15 K | 56.25 ± 0.46
503.15 K | 59 ± 0.43
505.15 K | 62.25 ± 0.46
509.15 K | 71.25 ± 0.53
512.15 K | 79.25 ± 0.6
513.65 K | 83.75 ± 0.66
516.15 K | 91.25 ± 0.73
517.65 K | 97.25 ± 0.75
519.15 K | 101.5 ± 0.81
519.65 K | 105.25 ± 1.1
521.15 K | 112.25 ± 1.1
522.15 K | 118.25 ± 1.3
524.15 K | 131.25 ± 1.3
525.15 K | 136.25 ± 1.1
526.15 K | 141.25 ± 1.3
527.15 K | 148.25 ± 1.5

Cl.Nc1ccccc1 [aniline hydrochloride] + O
mass density [kg/m3], [2]
Details | w1 = 0.01 | w1 = 0.05 | w1 = 0.1 | w1 = 0.15 | w1 = 0.2 | w1 = 0.3 | w1 = 0.35 | w1 = 0.4 | w1 = 0.6
298.15 K | 1000 ± 1 | 1009.2 ± 0.3 | 1018.9 ± 0.3 | 1028.7 ± 0.3 | 1038.5 ± 0.3 | 1057.8 ± 0.3 | 1068 ± 1 | 1078.3 ± 0.3 | –
303.15 K | 997.4 ± 0.3 | 1007.3 ± 0.3 | 1016.3 ± 0.3 | 1026.6 ± 0.3 | 1036.8 ± 0.3 | 1056 ± 1 | 1065.8 ± 0.3 | 1075.6 ± 0.3 | –
313.15 K | 994.3 ± 0.3 | 1002.3 ± 0.3 | 1012.3 ± 0.3 | 1021.7 ± 0.3 | 1031 ± 1 | 1049.6 ± 0.3 | 1059.7 ± 0.4 | 1069.7 ± 0.4 | –
323.15 K | 989.5 ± 0.3 | 995.9 ± 0.3 | 1007.3 ± 0.3 | 1016.5 ± 0.3 | 1025.8 ± 0.3 | 1045.3 ± 0.4 | 1055.1 ± 0.4 | 1065 ± 1 | 1107.5 ± 0.4
333.15 K | 985.6 ± 0.4 | 991.2 ± 0.4 | 1003.8 ± 0.4 | 1012.8 ± 0.4 | 1021.8 ± 0.4 | 1040.6 ± 0.4 | 1050.1 ± 0.4 | 1059.6 ± 0.4 | 1103.3 ± 0.4
343.15 K | 979.1 ± 0.4 | 985.1 ± 0.4 | 997.1 ± 0.4 | 1005.9 ± 0.4 | 1014.7 ± 0.4 | 1033.5 ± 0.4 | 1043 ± 1 | 1052.5 ± 0.4 | 1097.1 ± 0.5
353.15 K | 975.1 ± 0.4 | 980.7 ± 0.4 | 990.2 ± 0.5 | 998.8 ± 0.5 | 1007.4 ± 0.5 | 1026.7 ± 0.5 | 1036.3 ± 0.5 | 1045.9 ± 0.5 | 1087 ± 1
356.65 K | 965.4 ± 0.9 | 973.4 ± 0.8 | 978.7 ± 0.9 | 987.6 ± 1 | 996.6 ± 0.9 | 1016 ± 1 | 1026.1 ± 0.9 | 1036.3 ± 0.9 | 1078 ± 1

O [water] + Cl.Nc1ccccc1
[2], w2 = 0
Details | mass density [kg/m3]
298.15 K | 997.7 ± 0.3
303.15 K | 996 ± 1
313.15 K | 992 ± 1
323.15 K | 986.6 ± 0.3
333.15 K | 983.1 ± 0.4
343.15 K | 977.3 ± 0.4
353.15 K | 971.8 ± 0.4
356.65 K | 963.9 ± 0.7
